In paper PMC9506414, “Novel 2,6,9-Trisubstituted Purines as Potent CDK Inhibitors Alleviating Trastuzumab-Resistance of HER2-Positive Breast Cancers” (Pharmaceuticals, 2022):
Read-outs that look alike come from different tables or passages of the source.

How the values were obtained:
CDK12/CyclinK = CDK12/CyclinK (Homo sapiens, UniProt Q9NYV4); experiment: In vitro CDK12/cyclinK kinase assay; assay type: biochemical; parameters: purchased Reaction Biology Corp. (CRO that ran the assay)
Experimental: In vitro CDK12/cyclinK assays for all compounds and in vitro kinome-wide inhibition profiling of 30d at 10 μM were performed by a CRO company (Reaction Biology Corp., San Diego, CA, USA).

HCC1954 cells = experiment: Antiproliferation assay (Cell-titer Glo, 72 h); assay type: cell-based; conditions: Homo sapiens, 72 h, means and standard deviations from three independent assays, read-out: HCC1954 (GI50/μM)
Experimental: (§1) Breast-cancer cell lines (SK-Br3, HCC-1954) were purchased from Korea Cell Line Bank (Seoul, Korea) and were cultured in RPMI medium supplemented with 10% FBS and penicillin/streptomycin (Welgene, Seoul, Korea). All cell lines were maintained at 37 °C in a cell incubator in the presence of 5% CO2.
(§2) Breast-cancer cells in culture media (100 μL volume/well, 5000 SK-Br3 cells/well, 1000 HCC-1954 cells/well) were seeded in tissue culture-treated 96-well plates, and incubated at a cell incubator for 24 h. Serially diluted compounds (3-fold, 10 point from 10 mM, duplicated) were pre-plated and 500 nL of compound solutions were pin-transferred to the cells in the assay plates using pintool system (JANUS liquid handler, PerkinElmer, Waltham, MA, USA) and incubated at a cell incubator for 72 h. Cell-titer Glo^TM reagent (50 μL, Promega Corp., Madison, WI, USA) was added to each well, and the luminescence signal was read using an Envision^TM plate reader (PerkinElmer, Waltham, MA, USA). The titration curve fitting and IC50 values were generated using Prism 7.0 s/w (GraphPad, San Diego, CA, USA).

SK-Br3 cells = experiment: Antiproliferation assay (Cell-titer Glo, 72 h); assay type: cell-based; conditions: Homo sapiens, SK-BR-3; 72 h; means and standard deviations from three independent assays; read-out: SK-Br3 (GI50/μM)
Experimental: as §1, §2

[1] = Tables 1-4, read-out: CDK12/CyclinK (IC50/μM)

Sequence of CDK12/CyclinK (Q9NYV4 whole entry): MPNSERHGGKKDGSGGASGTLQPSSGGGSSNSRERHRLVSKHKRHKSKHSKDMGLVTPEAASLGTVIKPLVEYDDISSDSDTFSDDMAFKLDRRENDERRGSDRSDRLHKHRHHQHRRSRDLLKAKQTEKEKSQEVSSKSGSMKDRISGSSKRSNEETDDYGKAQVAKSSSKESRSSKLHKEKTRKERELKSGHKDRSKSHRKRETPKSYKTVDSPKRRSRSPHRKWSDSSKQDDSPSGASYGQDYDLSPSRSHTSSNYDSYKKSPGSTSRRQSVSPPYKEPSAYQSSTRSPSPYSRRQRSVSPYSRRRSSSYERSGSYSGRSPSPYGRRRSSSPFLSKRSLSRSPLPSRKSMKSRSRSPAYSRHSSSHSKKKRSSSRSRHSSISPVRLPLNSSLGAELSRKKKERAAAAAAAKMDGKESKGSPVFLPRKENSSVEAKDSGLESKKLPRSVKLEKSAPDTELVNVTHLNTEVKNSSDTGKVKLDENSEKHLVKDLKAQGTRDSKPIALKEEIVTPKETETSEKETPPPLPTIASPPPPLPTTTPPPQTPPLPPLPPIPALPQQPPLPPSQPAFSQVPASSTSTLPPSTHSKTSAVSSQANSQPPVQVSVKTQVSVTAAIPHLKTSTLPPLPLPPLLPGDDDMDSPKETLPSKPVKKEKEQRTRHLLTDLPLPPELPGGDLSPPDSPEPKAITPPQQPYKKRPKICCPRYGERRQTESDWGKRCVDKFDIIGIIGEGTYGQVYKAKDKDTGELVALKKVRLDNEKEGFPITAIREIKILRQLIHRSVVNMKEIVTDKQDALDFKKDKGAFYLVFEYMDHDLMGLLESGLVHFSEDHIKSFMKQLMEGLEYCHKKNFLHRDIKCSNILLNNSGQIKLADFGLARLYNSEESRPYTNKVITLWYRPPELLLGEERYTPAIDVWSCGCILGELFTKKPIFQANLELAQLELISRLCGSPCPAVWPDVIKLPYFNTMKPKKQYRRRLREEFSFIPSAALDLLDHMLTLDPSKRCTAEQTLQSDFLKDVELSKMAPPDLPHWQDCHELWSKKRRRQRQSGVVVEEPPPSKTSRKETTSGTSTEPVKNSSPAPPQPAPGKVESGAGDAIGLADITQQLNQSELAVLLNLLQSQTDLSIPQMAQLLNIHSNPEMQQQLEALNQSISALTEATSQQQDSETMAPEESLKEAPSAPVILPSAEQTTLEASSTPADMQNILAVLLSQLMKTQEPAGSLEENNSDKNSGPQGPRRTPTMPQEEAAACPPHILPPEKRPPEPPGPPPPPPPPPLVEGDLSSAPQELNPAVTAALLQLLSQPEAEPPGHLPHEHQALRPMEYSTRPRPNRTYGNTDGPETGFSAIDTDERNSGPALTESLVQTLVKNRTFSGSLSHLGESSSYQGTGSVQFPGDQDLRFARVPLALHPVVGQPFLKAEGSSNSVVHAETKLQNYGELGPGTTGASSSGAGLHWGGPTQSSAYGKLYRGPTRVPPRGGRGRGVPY
Sequence of CDK12/CyclinK (O75909 whole entry partner): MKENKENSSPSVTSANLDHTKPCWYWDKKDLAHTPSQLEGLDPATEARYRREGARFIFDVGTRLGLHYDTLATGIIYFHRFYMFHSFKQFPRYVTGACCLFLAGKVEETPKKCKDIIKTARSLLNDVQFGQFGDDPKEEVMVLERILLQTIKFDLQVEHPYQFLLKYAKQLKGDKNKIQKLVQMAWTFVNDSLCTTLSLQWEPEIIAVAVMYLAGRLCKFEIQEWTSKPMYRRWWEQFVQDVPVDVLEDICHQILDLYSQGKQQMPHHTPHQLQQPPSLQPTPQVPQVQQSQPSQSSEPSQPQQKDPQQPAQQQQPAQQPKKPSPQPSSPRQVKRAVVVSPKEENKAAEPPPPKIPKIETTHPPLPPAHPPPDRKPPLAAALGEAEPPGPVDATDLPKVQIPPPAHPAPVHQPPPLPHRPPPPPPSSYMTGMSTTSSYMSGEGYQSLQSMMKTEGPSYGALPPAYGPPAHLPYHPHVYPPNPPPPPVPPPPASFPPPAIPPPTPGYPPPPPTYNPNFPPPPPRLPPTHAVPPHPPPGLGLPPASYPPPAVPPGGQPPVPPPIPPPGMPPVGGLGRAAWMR

| IC50 (CDK12/CyclinK; Table 5, means and standard deviations from three independent assays, read-out: CDK12/CyclinK (IC50/μM)) [µM] | GI50 (HCC1954 cells) [µM] | GI50 (SK-Br3 cells) [µM] | IC50 (CDK12/CyclinK; [1]) [µM] | IC50 (CDK12/CyclinK; read-out: CDK12/cyclinK IC50) [µM] | SMILES |
| --- | --- | --- | --- | --- | --- |
| 0.0086 ± 0.0017 | 0.069 ± 0.006 | 0.094 ± 0.012 | – | – | CC(C)n1cnc2c(NCc3nc4ccc(F)c(F)c4[nH]3)nc(N3CCCC[C@H]3CCO)nc21 [Compound 2, reference compound] |
| – | 13.6 ± 1.16 | 24.6 ± 4.99 | 1.11 | – | Cc1ccc(-c2ccc(CNc3nc(-c4cccnc4)nc4c3ncn4C(C)C)nc2)cn1 [Compound 17c, 9-Isopropyl-N-((6′-methyl-[3,3′-bipyridin]-6-yl)methyl)-2-(pyridin-3-yl)-9H-purin-6-amine] |
| – | 0.247 ± 0.03 | 0.41 ± 0.034 | 0.221 | – | CC(C)n1cnc2c(NCc3ccc(-c4cccnc4)nc3)nc(-c3cccnc3)nc21 [Compound 17f, N-([2,3′-Bipyridin]-5-ylmethyl)-9-isopropyl-2-(pyridin-3-yl)-9H-purin-6-amine] |
| – | 0.494 ± 0.048 | 0.804 ± 0.095 | 0.153 | – | CC(C)n1cnc2c(NCc3ccc(-c4ccncc4)nc3)nc(-c3cccnc3)nc21 [Compound 17g, N-([2,4′-Bipyridin]-5-ylmethyl)-9-isopropyl-2-(pyridin-3-yl)-9H-purin-6-amine] |
| – | 1.12 ± 0.26 | 1.69 ± 0.243 | 0.623 | – | CC(C)n1cnc2c(NCc3ccc(-c4cccnc4)nc3)nc(-c3ccccc3)nc21 [Compound 18a, N-([2,3′-Bipyridin]-5-ylmethyl)-9-isopropyl-2-phenyl-9H-purin-6-amine] |
| – | 1.14 ± 0.304 | 1.62 ± 0.248 | 0.504 | – | CC(C)n1cnc2c(NCc3ccc(-c4cccnc4)nc3)nc(-c3cccc(C(N)=O)c3)nc21 [Compound 18b, 3-(6-(([2,3′-Bipyridin]-5-ylmethyl)amino)-9-isopropyl-9H-purin-2-yl)benzamide] |
| – | 3.14 ± 0.201 | 3.71 ± 0.45 | 0.484 | – | CC(C)n1cnc2c(NCc3ccc(-c4cccnc4)nc3)nc(-c3ccc(C(N)=O)cc3)nc21 [Compound 18c, 4-(6-(([2,3′-Bipyridin]-5-ylmethyl)amino)-9-isopropyl-9H-purin-2-yl)benzamide] |
| – | 1.35 ± 0.243 | 1.5 ± 0.112 | 0.155 | – | CC(C)n1cnc2c(NCc3ccc(-c4cccnc4)nc3)nc(-c3ccc4[nH]ccc4c3)nc21 [Compound 18d, N-([2,3′-Bipyridin]-5-ylmethyl)-2-(1H-indol-5-yl)-9-isopropyl-9H-purin-6-amine] |
| – | 0.399 ± 0.051 | 0.608 ± 0.115 | 0.179 | – | CC(C)n1cnc2c(NCc3ccc(-c4cccnc4)nc3)nc(-c3ccc4cn[nH]c4c3)nc21 [Compound 18e, N-([2,3′-Bipyridin]-5-ylmethyl)-2-(1H-indazol-6-yl)-9-isopropyl-9H-purin-6-amine] |
| – | 1.86 ± 0.148 | 2.58 ± 0.167 | 0.104 | – | CC(C)n1cnc2c(NCc3ccc(-c4cccnc4)nc3)nc(-c3ccc4[nH]ncc4c3)nc21 [Compound 18f, N-([2,3′-Bipyridin]-5-ylmethyl)-2-(1H-indazol-5-yl)-9-isopropyl-9H-purin-6-amine] |
| – | 4.23 ± 0.214 | 3.71 ± 0.557 | 0.486 | – | CC(C)n1cnc2c(NCc3ccc(-c4cccnc4)nc3)nc(-c3cnc4ccccc4c3)nc21 [Compound 18g, N-([2,3′-Bipyridin]-5-ylmethyl)-9-isopropyl-2-(quinolin-3-yl)-9H-purin-6-amine] |
| – | 0.942 ± 0.125 | 1.27 ± 0.33 | 0.09 | – | Cc1ccc(-c2nc(NCc3ccc(-c4cccnc4)nc3)c3ncn(C(C)C)c3n2)cn1 [Compound 18h, N-([2,3′-Bipyridin]-5-ylmethyl)-9-isopropyl-2-(6-methylpyridin-3-yl)-9H-purin-6-amine] |
| – | 0.278 ± 0.007 | 0.376 ± 0.067 | 0.065 | < 0.1 | CC(C)n1cnc2c(NCc3ccc(-c4cccnc4)nc3)nc(-c3ccc(N)nc3)nc21 [Compound 18i, N-([2,3′-Bipyridin]-5-ylmethyl)-2-(6-aminopyridin-3-yl)-9-isopropyl-9H-purin-6-amine] |
| – | 0.354 ± 0.06 | 0.71 ± 0.024 | 0.094 | < 0.1 | CC(C)n1cnc2c(NCc3ccc(-c4cccnc4)nc3)nc(-c3ccnc(N)c3)nc21 [Compound 18j, N-([2,3′-Bipyridin]-5-ylmethyl)-2-(2-aminopyridin-4-yl)-9-isopropyl-9H-purin-6-amine] |
| – | 0.31 ± 0.041 | 0.318 ± 0.149 | 0.051 | < 0.1 | CC(C)n1cnc2c(NCc3ccc(-c4cccnc4)nc3)nc(-c3cncnc3)nc21 [Compound 18k, N-([2,3′-Bipyridin]-5-ylmethyl)-9-isopropyl-2-(pyrimidin-5-yl)-9H-purin-6-amine] |
| – | 0.162 ± 0.011 | 0.242 ± 0.042 | 0.087 | < 0.1 | CC(C)n1cnc2c(NCc3ccc(-c4cccnc4)nc3)nc(-c3cnc(N)nc3)nc21 [Compound 18l, N-([2,3′-Bipyridin]-5-ylmethyl)-2-(2-aminopyrimidin-5-yl)-9-isopropyl-9H-purin-6-amine] |
| – | 1.13 ± 0.05 | 1.72 ± 0.336 | 0.501 | – | CC(C)n1cnc2c(NCc3ccc(-c4cccnc4)nc3)nc(-c3ccn[nH]3)nc21 [Compound 18m, N-([2,3′-Bipyridin]-5-ylmethyl)-9-isopropyl-2-(1H-pyrazol-5-yl)-9H-purin-6-amine] |
| – | 1.17 ± 0.027 | 1.99 ± 0.12 | 1.43 | – | CC(C)n1cnc2c(NCc3ccc(-c4cccnc4)nc3)nc(-c3cn[nH]c3)nc21 [Compound 18n, N-([2,3′-Bipyridin]-5-ylmethyl)-9-isopropyl-2-(1H-pyrazol-4-yl)-9H-purin-6-amine] |
| – | 2.63 ± 0.448 | 2.61 ± 0.899 | 0.619 | – | CC(C)n1cnc2c(NCc3ccc(-c4cccnc4)nc3)nc(-c3ccccc3N)nc21 [Compound 19a, N-([2,3′-Bipyridin]-5-ylmethyl)-2-(2-aminophenyl)-9-isopropyl-9H-purin-6-amine] |
| – | 0.341 ± 0.059 | 0.614 ± 0.055 | 0.17 | – | CC(C)n1cnc2c(NCc3ccc(-c4cccnc4)nc3)nc(-c3cccc(N)c3)nc21 [Compound 19b, N-([2,3′-Bipyridin]-5-ylmethyl)-2-(3-aminophenyl)-9-isopropyl-9H-purin-6-amine] |
| – | 0.497 ± 0.088 | 0.795 ± 0.063 | 0.15 | – | CC(C)n1cnc2c(NCc3ccc(-c4cccnc4)nc3)nc(-c3ccc(N)cc3)nc21 [Compound 19c, N-([2,3′-Bipyridin]-5-ylmethyl)-2-(4-aminophenyl)-9-isopropyl-9H-purin-6-amine] |
| – | 1.56 ± 0.116 | 2.3 ± 0.318 | 0.799 | – | CC(C)n1cnc2c(NCc3ccc(-c4cccnc4)nc3)nc(-c3ccccc3NCCO)nc21 [Compound 20a, 2-((2-(6-(([2,3′-Bipyridin]-5-ylmethyl)amino)-9-isopropyl-9H-purin-2-yl)phenyl)amino)ethan-1-ol] |
| – | 6.05 ± 0.351 | 11.2 ± 1.12 | 3.01 | – | CC(C)n1cnc2c(NCc3ccc(-c4cccnc4)nc3)nc(-c3ccccc3NCCCO)nc21 [Compound 20b, 3-((2-(6-(([2,3′-Bipyridin]-5-ylmethyl)amino)-9-isopropyl-9H-purin-2-yl)phenyl)amino)propan-1-ol] |
| – | 0.502 ± 0.025 | 0.732 ± 0.177 | 0.257 | – | CC(C)n1cnc2c(NCc3ccc(-c4cccnc4)nc3)nc(-c3cccc(NCCCO)c3)nc21 [Compound 20c, 3-((3-(6-(([2,3′-Bipyridin]-5-ylmethyl)amino)-9-isopropyl-9H-purin-2-yl)phenyl)amino)propan-1-ol] |
| – | 0.907 ± 0.068 | 1.09 ± 0.127 | 0.499 | – | CC(C)n1cnc2c(NCc3ccc(-c4cccnc4)nc3)nc(-c3ccc(NCCCO)cc3)nc21 [Compound 20d, 3-((4-(6-(([2,3′-Bipyridin]-5-ylmethyl)amino)-9-isopropyl-9H-purin-2-yl)phenyl)amino)propan-1-ol] |
| – | 1.33 ± 0.393 | 1.7 ± 0.165 | 0.147 | – | CC(C)n1cnc2c(NCc3ccc(-c4cccnc4)nc3)nc(-c3ccc(F)nc3)nc21 [Compound 21a, N-([2,3′-Bipyridin]-5-ylmethyl)-2-(6-fluoropyridin-3-yl)-9-isopropyl-9H-purin-6-amine] |
| – | 1.27 ± 0.021 | 1.68 ± 0.267 | 0.164 | – | CC(C)n1cnc2c(NCc3ccc(-c4cccnc4)nc3)nc(-c3ccnc(F)c3)nc21 [Compound 21b, N-([2,3′-Bipyridin]-5-ylmethyl)-2-(2-fluoropyridin-4-yl)-9-isopropyl-9H-purin-6-amine] |
| – | 44.4 ± 2.46 | > 100 | – | – | c1cncc(-c2ccc(CNc3nc(-c4cccnc4)nc4c3ncn4C3CCOCC3)cn2)c1 [Compound 28c, N-([2,3′-Bipyridin]-5-ylmethyl)-2-(pyridin-3-yl)-9-(tetrahydro-2H-pyran-4-yl)-9H-purin-6-amine] |
| – | 0.083 ± 0.011 | 0.101 ± 0.014 | – | – | CC[C@H](CO)Nc1nc(NCc2ccc(-c3ccccn3)cc2)c2ncn(C(C)C)c2n1 [R-CR8 (9), reference compound] |
